{"source": "paper PMC4669722", "about": "“Antitumour potential of BPT: a dual inhibitor of cdk4 and tubulin polymerization” (Cell Death & Disease, 2015)", "key": {"GSK3β": {"molecular_target": "GSK3β (Homo sapiens, UniProt P49841)", "sequence (P49841 whole entry)": "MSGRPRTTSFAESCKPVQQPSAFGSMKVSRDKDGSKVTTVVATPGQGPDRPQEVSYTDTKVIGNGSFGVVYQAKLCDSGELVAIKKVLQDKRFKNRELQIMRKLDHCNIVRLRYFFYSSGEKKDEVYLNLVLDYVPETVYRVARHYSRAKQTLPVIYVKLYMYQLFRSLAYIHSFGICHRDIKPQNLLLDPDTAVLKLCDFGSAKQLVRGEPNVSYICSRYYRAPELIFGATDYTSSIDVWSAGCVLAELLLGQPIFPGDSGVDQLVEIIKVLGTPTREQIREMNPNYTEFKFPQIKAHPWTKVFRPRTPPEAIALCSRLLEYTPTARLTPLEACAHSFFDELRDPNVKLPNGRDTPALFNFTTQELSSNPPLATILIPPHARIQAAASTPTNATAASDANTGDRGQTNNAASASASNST", "experiment": "Kinase profiling (Millipore), GSK3β", "assay_type": "biochemical", "experimental": "(§1) The in vitro kinase assays for testing against Cdk4-cyclin D1, Cdk2-cyclin A, Cdk1-cyclin B1 and Cdk9-cyclin T1 were performed in-house. The methodology and results have been reported previously.[20], [30], [31], [32], [45] The kinase profiling for 58 representative kinases was carrried out commercially at Millipore Bioscience Division, Livingston, UK."}, "PKA": {"molecular_target": "PKA (Homo sapiens, UniProt P17612)", "experiment": "Kinase profiling (Millipore), PKA", "assay_type": "biochemical", "experimental": "as §1"}, "IGF-1 R": {"molecular_target": "IGF-1 R (Homo sapiens, UniProt P08069)", "sequence (P08069 31-1367)": "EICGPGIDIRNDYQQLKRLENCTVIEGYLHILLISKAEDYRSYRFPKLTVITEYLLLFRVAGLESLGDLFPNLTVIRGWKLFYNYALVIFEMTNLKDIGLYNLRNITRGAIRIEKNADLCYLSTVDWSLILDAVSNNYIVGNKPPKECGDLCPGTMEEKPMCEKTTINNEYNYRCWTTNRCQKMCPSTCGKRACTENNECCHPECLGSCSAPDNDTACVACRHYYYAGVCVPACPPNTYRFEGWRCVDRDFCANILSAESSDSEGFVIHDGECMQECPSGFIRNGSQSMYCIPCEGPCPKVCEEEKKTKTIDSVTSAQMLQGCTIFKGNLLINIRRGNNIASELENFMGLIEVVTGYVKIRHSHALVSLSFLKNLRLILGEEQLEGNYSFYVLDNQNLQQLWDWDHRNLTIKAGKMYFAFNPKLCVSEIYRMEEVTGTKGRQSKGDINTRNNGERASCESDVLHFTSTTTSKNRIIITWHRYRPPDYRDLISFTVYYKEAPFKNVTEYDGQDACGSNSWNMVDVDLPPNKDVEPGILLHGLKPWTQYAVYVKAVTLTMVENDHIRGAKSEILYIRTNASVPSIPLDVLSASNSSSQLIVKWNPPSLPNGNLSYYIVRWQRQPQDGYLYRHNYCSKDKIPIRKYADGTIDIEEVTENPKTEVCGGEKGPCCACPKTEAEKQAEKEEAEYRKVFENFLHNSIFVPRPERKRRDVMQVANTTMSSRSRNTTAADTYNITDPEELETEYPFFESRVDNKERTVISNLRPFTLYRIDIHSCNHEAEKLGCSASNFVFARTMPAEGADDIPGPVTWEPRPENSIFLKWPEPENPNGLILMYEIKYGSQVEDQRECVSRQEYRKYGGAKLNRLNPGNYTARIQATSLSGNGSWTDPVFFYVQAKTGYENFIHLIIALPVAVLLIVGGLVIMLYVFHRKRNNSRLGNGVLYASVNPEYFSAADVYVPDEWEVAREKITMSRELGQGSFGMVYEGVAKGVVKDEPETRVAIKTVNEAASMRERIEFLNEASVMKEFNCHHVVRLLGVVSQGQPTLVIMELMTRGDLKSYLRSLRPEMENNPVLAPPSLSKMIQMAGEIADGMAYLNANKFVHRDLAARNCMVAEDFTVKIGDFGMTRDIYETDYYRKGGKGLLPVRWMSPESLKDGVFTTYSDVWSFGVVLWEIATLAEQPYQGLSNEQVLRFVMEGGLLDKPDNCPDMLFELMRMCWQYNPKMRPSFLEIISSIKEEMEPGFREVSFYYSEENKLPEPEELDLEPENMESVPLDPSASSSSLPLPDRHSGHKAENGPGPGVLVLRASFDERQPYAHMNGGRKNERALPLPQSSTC", "experiment": "Kinase profiling (Millipore), IGF-1 R", "assay_type": "biochemical", "experimental": "as §1"}, "[1]": {"system": "LS174T (colorectal carcinoma; p53+, pRb+)", "experiment": "Cell proliferation (MTT) assay, LS174T", "assay_type": "cell-based", "conditions": "Homo sapiens, 48 h, read-out: IC50 cell growth inhibition, LS174T", "experimental": "(§2) All 10 human cancer cell lines were maintained at 37 °C in 5% CO2 in RPMI-1640 medium, supplemented with 10% foetal calf serum and 100 μg/ml normocin. The 10 cancer cell lines used for screening were all obtained from ATCC (Manassas, VA, USA); they were the NSCLC (a form of cancer that is resistant to chemotherapy) lines: NCI-H460 (pRb^+, p53^+), A549 (pRb^+, p53^+), Calu-1 (pRb^+, p53-null), NCI-H1299 (pRb^+, p53-null), NCI-H358 (pRb-null, p53-null); the colon cancer line LS174T (pRb^+, p53^+); the prostate cancer line PC-3 (pRb^+, p53-null); the pancreatic cancer line MiaPaca (pRb^+, p53-mutant). The genotypes within brackets indicate the status of the tumour suppressor proteins pRb and p53. The mouse embryonic normal hepatic cell line (BNL CL2) and its SV40 large T-antigen-transformed counterpart cell line (BNL SV A.8) were also purchased from ATCC. The large T-antigen inactivates the tumour suppressor proteins p53 and pRb. The detailed procedure of cell proliferation (MTT) assay and IC50 determination was described previously.[32]"}, "[2]": {"system": "MiaPaCa (pancreatic; p53His273mut, pRb+)", "experiment": "Cell proliferation (MTT) assay, MiaPaCa", "assay_type": "cell-based", "conditions": "Homo sapiens, MIA PaCa-2, 48 h, read-out: IC50 cell growth inhibition, MiaPaCa", "experimental": "as §2"}, "[3]": {"system": "NCI-H460 (NSCLC; p53+, pRb+)", "experiment": "Cell proliferation (MTT) assay, NCI-H460", "assay_type": "cell-based", "conditions": "Homo sapiens, 48 h, read-out: IC50 cell growth inhibition, NCI-H460", "experimental": "as §2"}, "[4]": {"system": "NCI-H1299 (NSCLC; p53 null, pRb+)", "experiment": "Cell proliferation (MTT) assay, NCI-H1299", "assay_type": "cell-based", "conditions": "Homo sapiens, 48 h, read-out: IC50 cell growth inhibition, NCI-H1299", "experimental": "as §2"}, "[5]": {"system": "BNL CL2 (mouse normal hepatic cells)", "experiment": "Cell proliferation (MTT) assay, BNL CL2", "assay_type": "cell-based", "experimental": "as §2"}, "[6]": {"system": "BNL SV A.8 (mouse hepatic; SV40-mediated transformed cells)", "experiment": "Cell proliferation (MTT) assay, BNL SV A.8", "assay_type": "cell-based", "experimental": "as §2"}, "[7]": {"system": "several human cancer cells", "experiment": "Growth inhibition of several human cancer cells", "assay_type": "cell-based", "experimental": "as §2"}, "NCI-H1299 cells": {"system": "NCI-H1299 cells", "experiment": "Flow cytometric cell cycle analysis, NCI-H1299", "assay_type": "cell-based, human", "conditions": "NCI-H1299, IC50 concentration, 24 h", "experimental": "(§3) The untreated (control) and treated (with test compounds) cells were harvested by trypsinization, washed once with PBS and then fixed in 70% chilled (−20 °C) ethanol for minimum 1 h. After the fixation step, cells were centrifuged for 5 min at 3000 × g at room temperature, and the pellet was suspended in PBS containing 50 μg/ml propidium iodide (Sigma-Aldrich, Dorset, UK; cat. no. P-4170) and 0.5 mg/ml DNase-free ribonuclease (Sigma-Aldrich; cat. no. R-5503). The cells were stained for 1 h in the dark at 4 °C. Cell cycle analysis was performed on the Beckman Coulter (Epics Altra) fluorescence-activated cell sorter (Beckman Coulter UK Ltd, Buckinghamshire, UK). To gate all the events that represent single cells, and not cell doublets or cell clumps, the following analyses were performed on the samples. Cytograms of propidium iodide fluorescence peak signal versus integrated fluorescence or the linear signal were plotted. All data points on the straight line were isolated in a single gate and the gated data was further used for plotting a histogram that represents a complete cell cycle. The total number of events was not allowed to exceed 200 events per s. Data acquisition was stopped after a minimum of 10 000 events had been collected."}, "[8]": {"system": "BNL SV A.8 (mouse embryonic SV40-transformed hepatic cells)", "experiment": "Flow cytometric cell cycle analysis, BNL SV A.8", "assay_type": "cell-based", "conditions": "48 h", "experimental": "as §3"}, "tubulin in A549 cells": {"system": "tubulin in A549 cells", "experiment": "Tubulin polymerization/depolymerization in live cells (western blot)", "assay_type": "cell-based, human", "experimental": "A549 (NSCLC) cells were seeded at a concentration of 10 000 cells per well in 1 ml complete growth medium in 24-well per 15 mm culture plates. The plates were incubated for 24 h for cell attachment and stabilization. In the first set of experiments, the cells were treated with 10 nM paclitaxel and different concentrations of BPT for 30 min (cells underwent simultaneous treatment of paclitaxel and BPT). In the second set of experiments, to study the effect of BPT on the stabilised form of tubulin, cells were pretreated with 10 nM paclitaxel for 30 min. The cell monolayer was washed two times with sterile PBS and fresh growth medium containing different concentrations of BPT were added. The plates were further incubated for 30 min, the cell monolayers were washed two times with sterile PBS at room temperature and then 100 μl tubulin extraction buffer (1 mM MgCl2, 2 mM EGTA, 0.5% NP40 and 20 mM Tris-HCl (pH 6.8)) supplemented with 2 mM phenylmethylsulfonyl fluoride, and a protease inhibitor cocktail (Sigma-Aldrich; cat. no. P8340) was added per well. After a short and vigorous vortex mixing, the cell lysates were incubated at room temperature for 5 min and then centrifuged at 16 000 r.p.m. for 10 min to separate the soluble and polymerized tubulin fractions. […]"}, "[9]": {"conditions": "BNL CL2, concentration used in long-term survival assay (Fig. S3)"}, "[10]": {"conditions": "BNL SV A.8, concentration used in long-term survival assay (Fig. S3)"}}, "note": "Where two headings read alike, the source gives them in different places."}
{"smiles": "O=C(c1ccccc1-c1ccccc1)N1CCc2c([nH]c3ccccc23)C1", "note": "[BPT, 2-(biphenyl-2-carbonyl)-2,3,4,9-tetrahydro-1H-pyrido[3,4-b]indole]", "values": [{"measurement": "IC50", "setting": "GSK3β", "result": "> 10000", "unit": "nM"}, {"measurement": "IC50", "setting": "PKA", "result": "> 10000", "unit": "nM"}, {"measurement": "IC50", "setting": "IGF-1 R", "result": "> 10000", "unit": "nM"}, {"measurement": "IC50", "setting": "[1]", "result": 850, "unit": "nM"}, {"measurement": "IC50", "setting": "[2]", "result": 800, "unit": "nM"}, {"measurement": "IC50", "setting": "[3]", "result": 600, "unit": "nM"}, {"measurement": "IC50", "setting": "[4]", "result": 900, "unit": "nM"}, {"measurement": "IC30", "setting": "[5]; [9]", "result": 400, "unit": "nM"}, {"measurement": "IC70", "setting": "[5]; [9]", "result": 900, "unit": "nM"}, {"measurement": "IC50", "setting": "[5]; Mus musculus, BNL CL.2, 48 h, MTT, read-out: IC50 cell growth inhibition, BNL CL2", "result": 720, "unit": "nM"}, {"measurement": "IC20", "setting": "[5]; Mus musculus, BNL CL.2, BNL CL2, concentration used in long-term survival assay (Fig. S3)", "result": 250, "unit": "nM"}, {"measurement": "IC50", "setting": "[5]; Mus musculus, BNL CL.2, BNL CL2, concentration used in long-term survival assay (Fig. S3), read-out: IC50", "result": 600, "unit": "nM"}, {"measurement": "IC30", "setting": "[6]; [10]", "result": 400, "unit": "nM"}, {"measurement": "IC70", "setting": "[6]; [10]", "result": 900, "unit": "nM"}, {"measurement": "IC50", "setting": "[6]; Mus musculus, 48 h, MTT, read-out: IC50 cell growth inhibition, BNL SV A.8", "result": 750, "unit": "nM"}, {"measurement": "IC20", "setting": "[6]; Mus musculus, BNL SV A.8, concentration used in long-term survival assay (Fig. S3)", "result": 250, "unit": "nM"}, {"measurement": "IC50", "setting": "[6]; Mus musculus, BNL SV A.8, concentration used in long-term survival assay (Fig. S3), read-out: IC50", "result": 600, "unit": "nM"}, {"measurement": "IC50", "setting": "[7]", "result": "< 1000", "unit": "nM"}, {"measurement": "cells in G2/M", "setting": "NCI-H1299 cells", "result": 50, "unit": "%"}, {"measurement": "cells in Sub G1 (apoptosis)", "setting": "[8]; BNL SV A.8, IC50 concentration", "result": 43, "unit": "%"}, {"measurement": "cells in Sub G1 (apoptosis)", "setting": "[8]; BNL SV A.8, IC70 concentration", "result": 51, "unit": "%"}, {"measurement": "paclitaxel-mediated tubulin polymerization in live cells", "setting": "tubulin in A549 cells; A549, simultaneous 10 nM paclitaxel and BPT, 30 min", "result": "inhibited in a dose-dependent manner"}, {"measurement": "depolymerization of paclitaxel-stabilized tubulin in live cells", "setting": "tubulin in A549 cells; A549 pretreated with 10 nM paclitaxel 30 min, then BPT 30 min", "result": "enhanced the tubulin depolymerization"}]}
